Source: PMC9118996, “Directed evolution of Zymomonas mobilis sugar facilitator Glf to overcome glucose inhibition” (Journal of Industrial Microbiology & Biotechnology, 2021)

Target: T1, Glf (Zymomonas mobilis sugar / glucose facilitator) (Zymomonas mobilis, UniProt P21906)
T1 construct: full-length glf coding region with 20 bp native flanks in pTrc99A (pGlfwt), no tag told; expressed in E. coli W derivatives EG29 and EG51A lacking glucose and xylose uptake
T1 sequence (P21906 1-473): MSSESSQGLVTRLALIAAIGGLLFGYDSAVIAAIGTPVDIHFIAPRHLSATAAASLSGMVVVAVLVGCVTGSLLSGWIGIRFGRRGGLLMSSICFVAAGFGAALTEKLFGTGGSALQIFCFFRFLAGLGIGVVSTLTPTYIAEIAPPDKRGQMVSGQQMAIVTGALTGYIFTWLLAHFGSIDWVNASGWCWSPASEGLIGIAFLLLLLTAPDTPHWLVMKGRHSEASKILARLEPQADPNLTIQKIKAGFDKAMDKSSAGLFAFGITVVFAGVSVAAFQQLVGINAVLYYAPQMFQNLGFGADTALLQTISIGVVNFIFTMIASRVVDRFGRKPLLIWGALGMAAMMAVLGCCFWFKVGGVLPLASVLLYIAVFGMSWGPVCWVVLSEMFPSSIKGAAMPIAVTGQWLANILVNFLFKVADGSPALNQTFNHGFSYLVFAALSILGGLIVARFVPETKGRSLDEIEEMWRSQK
Assay: xylose utilization in fermentation of transport-deficient E. coli with Glf vs empty vector (HPLC)
Type: cell-based, Escherichia coli
Conditions: E. coli EG51A (EG29 glk-), 34 g/l xylose alone, pH 7.0, 37 °C, 10 µM IPTG; facilitated uptake; whole-cell read-out

OC1OC[C@@H](O)[C@H](O)[C@H]1O (stereo partly drawn) [D-xylose]
xylose utilization in fermentation of transport-deficient E. coli with Glf vs em: EG51A transformed with pGlfwt showed much improved xylose utilization compared to EG51A with empty vector
